# Measurements reported in patent publication EP0189971A2, “Composition containing a thiadiazole derivative and method for treating plants against bacteria” (PALIMPORT LTD., priority 1985, dated 1986).
# Read-outs that look alike come from different tables or passages of the source.
# Columns and labels:
# [1] = system: X. translucens; details: for Bacteria per gr. seeds: cupric acetate 0.1%, infected seeds
# Protocol: In this method, live bacterial pathogens that survived the seed disinfection, were counted. Treated seeds were dried by vaporization. Five grams of dried seeds from each treatment were ground in a grinder of 20 mesh and transferred to a solution containing 0.1% agar in water and were shaken for 30 minutes. From each sample, 10x dilutions were prepared. From each of the various dilutions, 0.1 ml was taken and placed in a suitable medium in a petri-dish, with a Drigalski stick. After 4 days of incubation at temperature of 27°C, colonies of the bacterial pathogens were counted in each petri-dish.
# The assessment of efficacy was carried out by counting of the number of bacteria that remained alive in the seeds after the disinfection and in a bio-assay system. (See Materials and Methods).
# In this trial the efficacy of the products in disinfecting wheat seeds was tested at various periods of time from 5 to 60 minutes. Disinfected seeds were compared with seeds treated with water (check) and with seeds that were defined in laboratory as seeds clean from the pathogen. Efficacy of the treatments was measured by counting the amount of bacteria that remained alive in the seeds. The trial was carried out in five replicates.
# [2] = system: Pseudomonas tomato; details: cupric acetate 0.1 %
# Protocol: In all trials, seed disinfection was carried out by dipping the seeds in different chemical solutions. The variable factors were: • 1. Different times of dipping: 10, 20, 30 and 60 minutes. • 2.. Different temperatures of dipping: room temperature (20°C), and a higher temperature (45°C).
# (§1) In this method, the efficacy of the disinfection is examined by a bioassay. After seed disinfection, the seeds are dried and sown in the soil, and kept in a humid cell with suitable temperature. The efficacy of the treatment is determined by the level of infestation in the seedlings.
# In tomatoes, disinfection trials were carried out against two bacterial diseases. Most of the work was done in order to examine the efficacy of the mixtures in controlling bacterial specic of tomato caused by Pseudomonas tomato. Later on some trials were carried out against a relatively new disease in Israel - "rotten pith" caused by P. coruoata. Trial 7
# Also, different dipping times and temperatures were checked. Efficacy of disinfection was evaluated by assessing the disease appearance in the seedlings which was caused by infection of the treated seeds.
# [3] = system: Pseudomonas tomato; assay: Preventative foliage spraying of tomato seedlings in greenhouse; assay type: in vivo; details: for Average level of ill seedlings: Cupric acetate 0.15 %, levels 0-5
# Protocol: The trials were carried out against bacterial diseases in the following crops: • a. In pepper - Bacterial spot of pepper (Xanthomonas vesicatoria). • b. In tomatoes - Bacterial specic of tomato (Pseudomonas tomato). • c. In cauliflower - Black rot (Xanthomonas camoestris). • 2. […].
# In trials that were carried out in the greenhouse, plants at age of 3 - 5 leaves that were grown in "speedling system", were used. Plants were allowed to grow in the original trays without contact between them.
# About 48 hours before the infection, the bacterial pathogen was transferred (for multiplication) to a suitable growth medium (see materials and methods of para I hereinbefore)at optimal temperature until all the medium was covered by bacteria. Then a suspension of bacteria at concentration of 1 x 10' - […] per cm^2 was prepared. The bacterial suspension was sprayed to runoff with a hand sprayer on to the leaves of the test plants. Spraying was made on dry leaves with the addition of carborundum to the spray solution in order to ensure better infection. In trials where the efficacy of the treatments was evaluated in preventative treatments, the application was given a few hours before the bacterial infection.
# In the preventative treatments, the products were applied a few hours before the bacterial infection. In the curative treatments, the application was carried out 20 hours after bacterial infection. After application, when plants dried out they were transferred to a fog chamber with controlled conditions.
# In trials that were carried out in the greenhouse, the plants were transferred after the application and infection, to control conditions of fogginess and suitable temperatures for bactena, till the end of the trial.
# Infection was evaluated in the seedlings according to the following key: 0 = healthy seedling, without symptoms of disease, 5 = complete coverage of the seedling with spots of disease, or dead seedling. The intermediate degrees were given according to the severity of the disease in the leaves.
# In tomatoes, several trials were carried out in greenhouse under conditions of fog chamber and artificial infection in order to evaluate the efficacy of Terrazole (trade mark) and copper, in different rates and combinations, in preventing and controlling bacterial diseases specic of tomato caused by Pseudomonastomato.
# In one trial, various treatments were examined in prevention of disease, as appears in Table IX.
# [4] = system: X. campestris; details: for Percent of infected seedlings: cupric acetate 0.1 %
# Protocol: as §1
# Trials were carried out in seeds of cabbage and cauliflower infested with Xanthomonas camoestris. […] Seeds were dipped in all treatments for 10 to 20 minutes at temperatures of 25°C and 45°C.
# The efficacy of the disinfection process was checked in a bio assay system.
# [5] = system: Pseudomonas tomato, Xanthomonasvesicatoria, X. translucens, X. camoestris; details: 0.8% cupric acetate in aqueous solution; each of the four species
# Protocol: G. Evaluation of product activity by direct contact with the bacteria: • The efficacy of a number of products by a direct contact with the bacteria was checked as follows: Preparation of solutions of different concentrations of the examined products. Soaked bacteria suspension in the solutions for a period of 10 minutes. Filtration of the solution containing bacteria through milipore disc, so that the bacteria are concentrated on the disc. Rinsing the disc with distilled water. Placing the disc in a measured amount of water with 0.1 % agar, and shaking the disc in this solution in order to transfer the bacteria from the disc to the solution. Making 10x dilutions and direct placing on suitable medium (see section F1 above).
# In this trial, 11 concentrations of cupric-acetate in aqueous solution were checked, from 0.001 - 0.8% by weight. […] All treatments were checked against the four species of bacteria mentioned.
substance,measurement,setting,value
cupric acetate,Bacteria per gr. seeds,[1]; 5 minutes,6040 b per gr. seeds
same,Bacteria per gr. seeds,[1]; 10 minutes,2920 b per gr. seeds
same,Bacteria per gr. seeds,[1]; 20 minutes,496 b per gr. seeds
same,control in comparison with the untreated seeds,"[1]; cupric acetate, dipping 20 minutes",94%
same,% Infected plants,"[2]; dipping 10 minutes, 25 °C",28.0%
same,"Improvement in control, in comparison with the untreated control","[2]; dipping 10 minutes, 25 °C",37.8
same,% Infected plants,"[2]; dipping 10 minutes, 40 °C",17.0%
same,"Improvement in control, in comparison with the untreated control","[2]; dipping 10 minutes, 40 °C",62.2
same,% Infected plants,"[2]; dipping 20 minutes, 25 °C",27.5%
same,"Improvement in control, in comparison with the untreated control","[2]; dipping 20 minutes, 25 °C",38.9
same,% Infected plants,"[2]; dipping 20 minutes, 40 °C",14.0%
same,"Improvement in control, in comparison with the untreated control","[2]; dipping 20 minutes, 40 °C",68.9
same,Percent of ill seedlings,"[3]; Cupric acetate 0.1 %, preventative spraying, ten days after the infection",34.2%
same,Average level of ill seedlings,[3]; 9 days after infection,0.30
same,Average level of ill seedlings,[3]; 11 days after infection,1.85
same,Average level of ill seedlings,[3]; 13 days after infection,2.80
same,Percent of infected seedlings,[4]; 25 °C 10 min.,78.6%
same,Percent of infected seedlings,[4]; 25 °C 20 min.,56.0%
same,Percent of infected seedlings,[4]; 40 °C 10 min.,45.0%
same,Percent of infected seedlings,[4]; 40 °C 20 min.,35.0%
same,disease control,"[4]; cupric acetate, at any of the trial conditions",≤ 38%
same,bacteria remained alive,[5],about 10^3 bacteria per cm^2 of water
